Assays:
HIV-1 = conditions: long-term IFN-α during and after ART; cited from earlier work
CD4 T cells = test: Ex vivo culture of splenocytes from HIV-1 persistently infected humanized mice; type: cell-based; conditions: for number of live CD4 T cells (CD4 T cell depletion) / active caspase-3 / apoptosis of CD4 T cells: 10 days culture, Z-DEVD-FMK 10 μM; for number of live CD4 T cells (CD4 T cell depletion): Ac-YVAD-CMK 50 μM
Protocol: Mice were sacrificed at 10 wpi. […] At day 10, the cells were counted and used for analysis. (B) HIV-1 RNA levels in culture supernatant. (C-D) Representative dot plots (C) and summarized data (D) show percentages of CD4 T cells with active caspase-3. (E) Number of live CD4 T cells in each group. (F-I) Splenocytes from mock (n=2) or HIV-1 infected (n=4) humanized mice were cultured with IL-2 in vitro in the presence of DMSO or caspase-3 inhibitor Z-DEVD-FMK or caspase-1 inhibitor Ac-YVAD-CMK for 10 days. At day 10, the cells were counted and used for staining. (F-G) Representative dot plots (F) and summarized data (G) show percentages of active caspase-3^+ CD4 T cells. (H-I) Number of live CD4 T cells in each group. Data are one representative of 2 independent experiments with mean values±s.e.m.). *P<0.05, **P<0.01 by unpaired, two-tailed Student's t-test to compare differences between each two groups.
For surface staining, single cell suspensions prepared from peripheral blood, spleen, or mesenteric lymph nodes of humanized mice were stained with surface markers and analyzed on a CyAn ADP flow cytometer (Dako). For intracellular staining, cells were first stained with surface markers, and then fixed and permeabilized with cytofix/cytoperm buffer (BD Bioscience), followed by intracellular staining. PE-conjugated anti-human active caspase-3 (C92-605) was used to detect intracellular activation of caspase-3. Fluorescent labeled inhibitors of caspases-1 probe assay (FLICA 660 Caspase-1 Assay Kit, ImmunoChemistry Technologies) were performed to determine intracellular activation of caspases-1. Data were analyzed using Summit4.3 software (Dako).
Media were half-changed every 2-3 days. At day 10, the cells were counted and used for staining.

[1] = α-IFNAR1 10 μg/ml, IFN-α 200 u/ml

Molecule	patients with suppression of HIV-1 rebound (HIV-1) [%]	HIV-1 replication (HIV-1 RNA in culture supernatant) (CD4 T cells; 10 days culture with IL-2, α-IFNAR1 10 μg/ml, IFN-α 200 u/ml)	number of live CD4 T cells (CD4 T cell depletion) (CD4 T cells)	active caspase-3 / apoptosis of CD4 T cells (CD4 T cells; [1])
IFN-α	~40	inhibited HIV-1 replication	accelerated CD4 T cell depletion	further increased the level of active caspase-3
CC(=O)N[C@@H](Cc1ccc(O)cc1)C(=O)N[C@H](C(=O)N[C@@H](C)C(=O)N[C@@H](CC(=O)O)C(=O)CCl)C(C)C [Ac-YVAD-CMK, reference compound]	–	–	did not prevent CD4 T cell depletion	–
COC(=O)CC[C@H](NC(=O)[C@H](CC(=O)OC)NC(=O)OCc1ccccc1)C(=O)N[C@H](C(=O)N[C@@H](CC(=O)OC)C(=O)CF)C(C)C [Z-DEVD-FMK, reference compound]	–	–	rescued CD4 T cell number	reduced HIV-1 induced CD4 T cell apoptosis
